These results are taken from ChEMBL document CHEMBL1671772, “Predicting hERG activities of compounds from their 3D structures: development and evaluation of a global descriptors based QSAR model” (Eur J Med Chem, 2011).

Assay [1] addresses T1, Voltage-gated inwardly rectifying potassium channel KCNH2 (Homo sapiens, UniProt Q12809).
The target of assay [2] is T1, Voltage-gated inwardly rectifying potassium channel KCNH2. The source holds these as a separate data set.

Molecules are shown by their SMILES.

T1 sequence (Q12809 whole entry): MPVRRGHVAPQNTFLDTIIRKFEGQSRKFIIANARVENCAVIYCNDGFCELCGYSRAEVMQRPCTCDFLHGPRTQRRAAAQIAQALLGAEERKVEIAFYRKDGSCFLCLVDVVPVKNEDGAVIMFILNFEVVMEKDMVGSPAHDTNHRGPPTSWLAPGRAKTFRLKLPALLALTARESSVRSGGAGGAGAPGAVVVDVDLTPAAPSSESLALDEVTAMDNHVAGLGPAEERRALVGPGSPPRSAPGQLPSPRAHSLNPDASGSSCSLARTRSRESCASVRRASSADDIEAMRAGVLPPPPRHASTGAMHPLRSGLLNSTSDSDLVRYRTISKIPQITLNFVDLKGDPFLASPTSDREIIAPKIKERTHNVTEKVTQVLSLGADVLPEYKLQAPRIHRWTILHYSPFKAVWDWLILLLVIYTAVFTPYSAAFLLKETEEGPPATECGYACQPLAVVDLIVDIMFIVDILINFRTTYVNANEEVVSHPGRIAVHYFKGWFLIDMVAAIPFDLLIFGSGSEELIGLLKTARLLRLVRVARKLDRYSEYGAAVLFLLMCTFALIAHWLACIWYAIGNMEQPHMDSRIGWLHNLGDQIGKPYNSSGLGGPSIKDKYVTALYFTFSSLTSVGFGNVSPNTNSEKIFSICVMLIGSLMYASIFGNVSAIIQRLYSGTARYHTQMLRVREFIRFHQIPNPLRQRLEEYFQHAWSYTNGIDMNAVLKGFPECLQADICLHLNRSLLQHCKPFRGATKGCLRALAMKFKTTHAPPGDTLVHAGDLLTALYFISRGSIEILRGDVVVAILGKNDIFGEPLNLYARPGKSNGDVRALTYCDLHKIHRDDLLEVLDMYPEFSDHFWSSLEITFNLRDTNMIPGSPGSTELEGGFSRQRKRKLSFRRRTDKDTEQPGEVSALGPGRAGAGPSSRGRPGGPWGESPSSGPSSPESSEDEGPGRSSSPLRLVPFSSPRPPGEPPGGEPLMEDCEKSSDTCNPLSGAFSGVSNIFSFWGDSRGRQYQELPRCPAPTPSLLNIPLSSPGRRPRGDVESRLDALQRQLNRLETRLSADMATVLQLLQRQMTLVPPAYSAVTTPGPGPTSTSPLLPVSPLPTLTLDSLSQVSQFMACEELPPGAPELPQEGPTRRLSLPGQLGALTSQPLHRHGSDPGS

One may read the IC50 as the concentration at which inhibition is half-maximal. The low end stands for higher potency, the high end for lower potency. For the compound `O=C1NCCN1CCN1CC=C(c2cn(-c3ccc(F)cc3)c3ccc(Cl)cc23)CC1`, the half-inhibitory concentration (IC50) in assay [1] is 0.01 µM.
On the same count and under the same terms, with `COC(=O)[C@@H]1[C@H]2CC[C@@H](C[C@@H]1O)N2C` the figure was 417 µM; with `CCOC(=O)C1C(OC(=O)c2ccccc2)CC2CCC1N2C` (stereo not drawn), 1.2 µM; with `O=C1NCCN1CCN1CCC(c2cn(-c3ccc(F)cc3)c3ccccc23)CC1`, 0.00692 µM.
On the same count and under the same terms, the result for `CCC1OC(=O)C(C)C(OC2CC(C)(OC)C(O)C(C)O2)C(C)C(OC2OC(C)CC(N(C)C)C2O)C(C)(O)CC(C)/C(=N/OCOCCOC)C(C)C(O)C1(C)O` (stereo not drawn) reads 36.3 µM.
The compound `c1ccc(-c2[nH]c3ccccc3c2C2CC3CCC(C2)N3c2ccccc2)cc1` (stereo not drawn) showed a concentration for half-maximal inhibition (IC50) in assay [1] of 0.0178 µM.
Take `CN1C2CCC1C(C(=O)O)C(OC(=O)c1ccccc1)C2` (stereo not drawn): 3980 µM corresponded to half-maximal inhibition in assay [1] (IC50).
In assay [1], `CCNCCc1cccc(C(F)(F)F)c1` showed an IC50 of 537 µM.
With `COc1ccc(CC(=O)NCc2ccccc2-c2ccccc2C(=O)NCCc2cccnc2)cc1`, in assay [1], the IC50 is 10 µM.
As to `Cc1cn2c(N)c(Cl)cc(C(=O)NCC3CCN(CC(C)C)CC3)c2n1`, inhibition in assay [1] was half-maximal at 2.57 µM (IC50). Against the preceding compound, the IC50 is about 3.9-fold lower.
On to `CC(C)(CN1CCC(=C2c3ccc(F)cc3COc3ccccc32)CC1)C(=O)O`, for which the half-inhibitory concentration (IC50) in assay [1] is 10 µM.
The compound `CO[C@@H]1[C@@H](O[C@@H]2O[C@H](C)[C@@H](O[C@H]3C[C@@](C)(O)[C@@H](OC(=O)CC(C)C)[C@H](C)O3)[C@H](N(C)C)[C@H]2O)[C@@H](CC=O)C[C@@H](C)[C@@H](O)/C=C\C=C\C[C@@H](C)OC(=O)C[C@H]1OC(C)=O` showed an IC50 in assay [1] of 102 µM.
The compound `CCC1OC(=O)C(C)C(OC2CC(C)(OC)C(O)C(C)O2)C(C)C(OC2OC(C)CC(N(C)C)C2O)C(C)(OC)CC(C)C(=O)C(C)C(O)C1(C)O` (stereo not drawn) gave a concentration for half-maximal inhibition (IC50) in assay [1] of 33.1 µM.
For the compound `COc1ccc(CC(=O)Nc2cc3c(cc2[N+](=O)[O-])OC(C)(C)[C@H](O)[C@H]3NC2CC2)cc1`, the 50% inhibitory concentration (IC50) in assay [1] came to 43.7 µM.
The compound `CC1=C2C3OC(=O)C(C)C3C(O)CC2(C)C=CC1=O` (stereo not drawn) gave an IC50 in assay [1] of 110 µM. This IC50 lies about 2.5-fold higher than the previous one.
As for `CCCC1NC(C)C2C(=O)N=C(c3cc(S(=O)(=O)N4CCN(CC)CC4)ccc3OCC)NN12` (stereo not drawn), the IC50 in assay [1] is 12.9 µM.
As for `CC(=O)NC(=O)C1CCC(C2N=CC(c3cccc(Br)c3)=N2)CC1` (stereo not drawn), in assay [1], the IC50 is 0.501 µM.
Still for that read-out and setting: the result for `CCCCCCCN(CC)CCCCc1ccc([N+](=O)[O-])cc1` reads 0.00219 µM; that for `Fc1ccc(-n2cc(C3CCNCC3)c3cc(Cl)ccc32)cc1`, 0.204 µM.
As to `Fc1ccc(-n2cc(C3CCN(CCN4CCN=C4S)CC3)c3ccccc32)cc1`, in assay [1], half-maximal inhibition (IC50) required 0.00617 µM. This IC50 is about 33-fold lower than that of the compound before.
In the case of `CC(C)(C)c1ccc2c(ccn2-c2ccc(F)cc2)c1`, in assay [1], half-maximal inhibition (IC50) was put at 10 µM. Compared with the last compound, the IC50 is about 1600-fold higher.
Broadly, the pIC50 is the negative decadic logarithm of the IC50, by convention in mol/L. A lower pIC50 goes with a high IC50. In assay [2], `CCc1cn(-c2ccc(F)cc2)c2ccc(Cl)cc12` displayed a pIC50 of 2.46.
As to `CC(=O)c1cn(-c2ccc(F)cc2)c2ccc(Cl)cc12`, it took 10 µM to reach half-maximal inhibition in assay [1] (IC50).
With `O=C(OC1Cc2c(O)cc(O)cc2OC1c1cc(O)c(O)c(O)c1)c1cc(O)c(O)c(O)c1` (stereo not drawn), the half-maximal inhibitory concentration (IC50) in assay [1] is 6.03 µM.
In the case of `CC(C)(C)c1ccc(NC(=O)N2CCN(c3ncccc3Cl)CC2)cc1`, in assay [1], the half-inhibitory concentration (IC50) is 1 µM.
On to `CCCc1cn(-c2ccc(F)cc2)c2ccc(Cl)cc12`, for which the negative-log IC50 (pIC50) in assay [2] is reported as 1.59.
Consider `CC(O)c1cn(-c2ccc(F)cc2)c2ccc(Cl)cc12` (stereo not drawn), for which the pIC50 in assay [2] is on record as 2.34.
As to `CC(C)c1cn(-c2ccc(F)cc2)c2ccc(Cl)cc12`, it took 10 µM to reach half-maximal inhibition in assay [1] (IC50).
`CCC(=O)c1cn(-c2ccc(F)cc2)c2ccc(Cl)cc12` had a negative-log IC50 (pIC50) in assay [2] of 2.7.
In the case of `O=C1NCCN1CCN1CCC(c2cn(C3CCCCC3)c3ccc(Cl)cc23)CC1`, the IC50 in assay [1] was 0.138 µM.
`CCC(O)c1cn(-c2ccc(F)cc2)c2ccc(Cl)cc12` (stereo not drawn) displayed a pIC50 in assay [2] of 2.66.
In assay [1], `CCC(O)(CC)c1cn(-c2ccc(F)cc2)c2ccc(Cl)cc12` showed an IC50 of 15.8 µM.
Turning to `O=C1NCCN1CCN1CCC(C2CN(c3ccc(F)cc3)c3ccccc32)CC1` (stereo not drawn), 0.0234 µM corresponded to half-maximal inhibition in assay [1] (IC50). Compared with the last compound, the IC50 is about 680-fold lower.
For the compound `CN1CC(=O)N2[C@H](c3ccc4c(c3)OCO4)c3[nH]c4ccccc4c3C[C@@H]2C1=O`, inhibition in assay [1] was half-maximal at 100 µM (IC50). Compared with the last compound, the IC50 is about 4300-fold higher.
The same measure, in the same setting: with `COC(=O)C1=CCC2CCC1N2C` (stereo in doubt; 21) the figure was 8.91 µM.
`COC(=O)C1=CCC2CCC1N2C` (stereo in doubt; 41): half-maximal inhibition in assay [1] (IC50) was put at 170 µM. Compared with the last compound, the IC50 is about 19-fold higher.
The same measure, in the same setting: the result for `COc1ccc2cc3[n+](cc2c1OC)CCc1cc2c(cc1-3)OCO2` [BERBERINE] reads 66.1 µM; that for `CC(C)(C)N1CCC(c2ccccc2)(c2ccccc2)CC1` [BUDIPINE], 0.851 µM; that for `NC(=O)N1c2ccccc2C=Cc2ccccc21` [CARBAMAZEPINE], 105 µM.
The compound `COc1cc(N)c(Cl)cc1C(=O)NC1CCN(Cc2ccccc2)CC1` [CLEBOPRIDE] gave a half-maximal inhibitory concentration (IC50) in assay [1] of 0.603 µM.
In the case of `Clc1ccccc1C(c1ccccc1)(c1ccccc1)n1ccnc1` [CLOTRIMAZOLE], the midpoint of inhibition in assay [1], the IC50, lay at 3.02 µM.
Turning to `CCCCc1oc2ccc(NS(C)(=O)=O)cc2c1C(=O)c1ccc(OCCCN(CCCC)CCCC)cc1` [DRONEDARONE], the IC50 in assay [1] was 0.316 µM.
Compound `CCOP(=O)(Sc1ccccc1)Sc1ccccc1` [EDIFENPHOS] gave an IC50 in assay [1] of 50.1 µM.
For the compound `CN(C)CCCn1cc(C2=C(c3c[nH]c4ccccc34)C(=O)NC2=O)c2ccccc21` [GF-109203], 1 µM corresponded to half-maximal inhibition in assay [1] (IC50).
On the same count and under the same terms, with `CC(C(O)c1ccc(O)cc1)N1CCC(Cc2ccccc2)CC1` (stereo not drawn) [IFENPRODIL] the figure was 0.1 µM.
For `COC(=O)C1=C(C)NC(C)=C(C(=O)OC(C)C)C1c1cccc2nonc12` (stereo not drawn) [ISRADIPINE], the IC50 in assay [1] was 50.1 µM.
On to `CCCCN1CCCC[C@H]1C(=O)Nc1c(C)cccc1C` [LEVOBUPIVACAINE], for which, in assay [1], it took 20.9 µM to reach half-maximal inhibition (IC50).
In turn, `CCC(=O)O[C@@](Cc1ccccc1)(c1ccccc1)[C@@H](C)CN(C)C` [LEVOPROPOXYPHENE] had a half-maximal inhibitory concentration (IC50) in assay [1] of 2.75 µM.
The compound `O=C(OC1CC2CC3CC(C1)N2CC3O)c1c[nH]c2ccccc12` (stereo not drawn) [MDL-74156] gave a concentration for half-maximal inhibition (IC50) in assay [1] of 12 µM. Against the preceding compound, the IC50 is about 4.4-fold higher.
In assay [1], `Cc1cccc(C)c1NC(=O)C1CCCCN1C` (stereo not drawn) [MEPIVACAINE] gave a half-maximal inhibitory concentration (IC50) of 155 µM.
With `Cc1cccc(C)c1OCC(C)N` (stereo not drawn) [MEXILETINE], in assay [1], it took 10 µM to reach half-maximal inhibition (IC50). Compared with the last compound, the IC50 is about 16-fold lower.
In assay [1], `O=C(NCCN1CCOCC1)c1ccc(Cl)cc1` [MOCLOBEMIDE] showed an IC50 of 79.4 µM.
In assay [1], `CCOc1cc(N)c(Cl)cc1C(=O)NCC1CN(Cc2ccc(F)cc2)CCO1` (stereo not drawn) [MOSAPRIDE] showed an IC50 of 4.79 µM.
The compound `Cc1cc2c(s1)Nc1ccccc1N=C2N1CCN(C)CC1` [OLANZAPINE] showed an IC50 in assay [1] of 0.204 µM.
For `COc1ccc(Cc2nccc3cc(OC)c(OC)cc23)cc1OC` [PAPAVERINE], 7.24 µM corresponded to half-maximal inhibition in assay [1] (IC50).
On the same count and under the same terms, with `CCCC(C)C1(CC)C(=O)NC(=O)NC1=O` (stereo not drawn) [PENTOBARBITAL] the figure was 132 µM; with `CCCN1C[C@H](CSC)C[C@@H]2c3cccc4[nH]cc(c34)C[C@H]21` [PERGOLIDE], 0.12 µM.
As to `O=C1CCC(c2ccc(Nc3ccncc3)cc2)=NN1` [SENAZODAN], in assay [1], inhibition was half-maximal at 1.05 µM (IC50).
